Source: ChEMBL document CHEMBL1139852, “A distinctive structural twist in the aminoimidazole alkaloids from a calcareous marine sponge: isolation and characterization of leucosolenamines A and B” (J Nat Prod, 2007)

Assays:
Format in all cases: cell-based
[1] = Selective cytotoxicity for mouse C38 cells over CFU-GM cells at 7.8 ug/disk; conditions: mc-38
MC-38 [2] = experiment: Cytotoxicity against mouse C38 cells at 7.8 ug/disk
[3] = Cytotoxicity against mouse CFU-GM cells at 7.8 ug/disk
[4] = Selective cytotoxicity for mouse C38 cells over CFU-GM cells at 180 ug/disk; conditions: mc-38
MC-38 [5] = experiment: Cytotoxicity against mouse C38 cells at 180 ug/disk
[6] = Cytotoxicity against mouse CFU-GM cells at 180 ug/disk

Compound	inhibition zone (IZ) [1] [mm]	inhibition zone (IZ) (MC-38 [2]) [mm]	inhibition zone (IZ) [3] [mm]	inhibition zone (IZ) [4] [mm]	Activity (MC-38 [5])	Activity [6]	inhibition zone (IZ) (MC-38 [5]) [mm]	inhibition zone (IZ) [6] [mm]
CO[C@@H](C(=O)N[C@H]1CCCCNC1=O)[C@H](O)[C@@H](O)[C@H](O)/C=C/C(C)C [BENGAMIDE E]	4.5	21	16.5	–	–	–	–	–
Cc1cn([C@H]2C[C@H](O)[C@@H](CO)O2)c(=O)[nH]c1=O [DOXRIBTIMINE]	–	–	–	0	Not Active	Not Active	–	–
Cn1c(/N=C2\NC(=N)N=C2Cc2ccc3c(c2)OCO3)c(N)c(=O)n(C)c1=O [LEUCOSOLENAMINE A]	–	–	–	10.5	–	–	10.5	0
